Measured values reported in publication PMC8655881 (Cancer research, 2021).

Tests used:
[1] = test system: OE33 cells; conditions: read-out: EC50, OE33 colony formation and other Notch-dependent cell lines; as previously reported; cited from earlier work
[2] = test system: small intestines; experiment: PAS staining of small intestine, 5 daily treatments; assay type: in vivo; conditions: 5 daily i.p. treatments; NADI-351 up to 40 mg/kg, DBZ 10 mg/kg
[3] = test system: hNotch1^ICD; experiment: Inducible Notch1^ICD-driven luciferase reporter assay in 293A cells; assay type: cell-based, human; conditions: read-out: IC50, inducible Notch1^ICD-responsive luciferase reporter, 24 h, normalized to cell viability

Row | SMILES | EC50 [1] | GI toxicity / goblet cell metaplasia (PAS staining) [2] | IC50 [3]
1 | C[C@H](NC(=O)Cc1cc(F)cc(F)c1)C(=O)N[C@H](C(=O)OC(C)(C)C)c1ccccc1 [DAPT] | 10 to 15 µM |  | 
2 | C[C@H](NC(=O)Cc1cc(F)cc(F)c1)C(=O)N[C@@H]1C(=O)N(C)c2ccccc2-c2ccccc21 [DBZ] |  | induction of goblet cell metaplasia | 
3 | CCOC(=O)COc1ccc(/C=C2\SC(=S)NC2=O)cc1OC [IMR-1] | 10 to 15 µM |  | > 40 µM
